Source: the NIST ThermoML archive (doi:10.1021/je049652j)
Numbers after ± are expanded uncertainties.

Assay: molar heat capacity at constant pressure
Settings: 101.33 kPa, Liquid

CCCCCBr [1-bromopentane]
molar heat capacity at constant pressure (284.15 K): 187.88 ± 0.94 J/K/mol | molar heat capacity at constant pressure (286.65 K): 188.46 ± 0.94 J/K/mol | molar heat capacity at constant pressure (289.15 K): 189.17 ± 0.95 J/K/mol | molar heat capacity at constant pressure (291.65 K): 189.85 ± 0.95 J/K/mol | molar heat capacity at constant pressure (294.15 K): 190.33 ± 0.95 J/K/mol | molar heat capacity at constant pressure (296.65 K): 190.94 ± 0.95 J/K/mol | molar heat capacity at constant pressure (299.15 K): 191.57 ± 0.96 J/K/mol | molar heat capacity at constant pressure (301.65 K): 192.17 ± 0.96 J/K/mol | molar heat capacity at constant pressure (304.15 K): 193.01 ± 0.97 J/K/mol | molar heat capacity at constant pressure (306.65 K): 193.53 ± 0.97 J/K/mol | molar heat capacity at constant pressure (309.15 K): 194.17 ± 0.97 J/K/mol | molar heat capacity at constant pressure (311.65 K): 194.86 ± 0.97 J/K/mol | molar heat capacity at constant pressure (314.15 K): 195.6 ± 0.98 J/K/mol | molar heat capacity at constant pressure (316.65 K): 196.21 ± 0.98 J/K/mol | molar heat capacity at constant pressure (319.15 K): 196.98 ± 0.98 J/K/mol | molar heat capacity at constant pressure (321.65 K): 197.61 ± 0.99 J/K/mol | molar heat capacity at constant pressure (324.15 K): 198.35 ± 0.99 J/K/mol | molar heat capacity at constant pressure (326.65 K): 199.09 ± 1 J/K/mol | molar heat capacity at constant pressure (329.15 K): 199.8 ± 1 J/K/mol | molar heat capacity at constant pressure (331.65 K): 200.47 ± 1 J/K/mol | molar heat capacity at constant pressure (334.15 K): 201.48 ± 1 J/K/mol | molar heat capacity at constant pressure (336.65 K): 201.57 ± 1 J/K/mol | molar heat capacity at constant pressure (339.15 K): 202.76 ± 1 J/K/mol | molar heat capacity at constant pressure (341.65 K): 203.58 ± 1 J/K/mol | molar heat capacity at constant pressure (344.15 K): 204.33 ± 1 J/K/mol | molar heat capacity at constant pressure (346.65 K): 205.07 ± 1 J/K/mol | molar heat capacity at constant pressure (349.15 K): 205.89 ± 1 J/K/mol | molar heat capacity at constant pressure (351.65 K): 206.69 ± 1 J/K/mol | molar heat capacity at constant pressure (353.15 K): 207.05 ± 1 J/K/mol

CCCCCCCCl [1-chloroheptane]
molar heat capacity at constant pressure (284.15 K): 240.95 ± 1.2 J/K/mol | molar heat capacity at constant pressure (286.65 K): 241.75 ± 1.2 J/K/mol | molar heat capacity at constant pressure (289.15 K): 242.67 ± 1.2 J/K/mol | molar heat capacity at constant pressure (291.65 K): 243.4 ± 1.2 J/K/mol | molar heat capacity at constant pressure (294.15 K): 244.29 ± 1.2 J/K/mol | molar heat capacity at constant pressure (296.65 K): 245.23 ± 1.2 J/K/mol | molar heat capacity at constant pressure (299.15 K): 246.05 ± 1.2 J/K/mol | molar heat capacity at constant pressure (301.65 K): 247.03 ± 1.2 J/K/mol | molar heat capacity at constant pressure (304.15 K): 247.61 ± 1.2 J/K/mol | molar heat capacity at constant pressure (306.65 K): 248.53 ± 1.2 J/K/mol | molar heat capacity at constant pressure (309.15 K): 249.54 ± 1.2 J/K/mol | molar heat capacity at constant pressure (311.65 K): 250.65 ± 1.2 J/K/mol | molar heat capacity at constant pressure (314.15 K): 251.6 ± 1.3 J/K/mol | molar heat capacity at constant pressure (316.65 K): 252.2 ± 1.3 J/K/mol | molar heat capacity at constant pressure (319.15 K): 253.36 ± 1.3 J/K/mol | molar heat capacity at constant pressure (321.65 K): 254.42 ± 1.3 J/K/mol | molar heat capacity at constant pressure (324.15 K): 254.76 ± 1.3 J/K/mol | molar heat capacity at constant pressure (326.65 K): 256.19 ± 1.3 J/K/mol | molar heat capacity at constant pressure (329.15 K): 257.57 ± 1.3 J/K/mol | molar heat capacity at constant pressure (331.65 K): 258.06 ± 1.3 J/K/mol | molar heat capacity at constant pressure (334.15 K): 258.84 ± 1.3 J/K/mol | molar heat capacity at constant pressure (336.65 K): 259.88 ± 1.3 J/K/mol | molar heat capacity at constant pressure (339.15 K): 261.01 ± 1.3 J/K/mol | molar heat capacity at constant pressure (341.65 K): 261.55 ± 1.3 J/K/mol | molar heat capacity at constant pressure (344.15 K): 262.9 ± 1.3 J/K/mol | molar heat capacity at constant pressure (346.65 K): 263.26 ± 1.3 J/K/mol | molar heat capacity at constant pressure (349.15 K): 264.3 ± 1.3 J/K/mol | molar heat capacity at constant pressure (351.65 K): 266.04 ± 1.3 J/K/mol | molar heat capacity at constant pressure (353.15 K): 266.51 ± 1.3 J/K/mol
